US8232289B2, “Spiropiperidine compounds as ORL-1 receptor antagonists” (Eli Lilly and Company, priority 2009, dated 2012)
Marks after values point to notes of the source that are not given here.

Key:
[1] = Rat hepatic microsomal glutathione trapping assay; assay type: in vitro ADME; conditions: hepatic microsomal homogenate, glutathione as nucleophile
From the text: Assuming that reactive metabolites may play a role in clinical IDRs, minimizing the potential for oxidative bioactivation has been proposed as a means of improving the overall safety profile of compounds containing structural features associated with such reactivity. (see Baillie, Thomas A., Approaches to the Assessment of Stable and Chemically Reactive Drug Metabolites in Early Clinical Trials, Chemical Research in Toxicology, vol 22(2) 2009.) To this end, representative compounds of the present invention and related compounds are screened using a rat hepatic microsomal trapping assay, using glutathione as an endogenous nucleophile, to understand the potential for oxidative bioactivation of the thienyl moiety. […] Of the compounds tested, those wherein R^2a and R^2b are fluoro are found to not show glutathione conjugate formation.

[2] = system: male NIH-Swiss mice; assay: Forced-swim test in mice (mFST); assay type: in vivo
From the text: (§1) mFST is an established in vivo assay for antidepressant activity (Li et al. J Pharmacol Exp Ther. 319(1):254-9, 2006.). […] The mFST was used to evaluate potential antidepressant-like activity of novel nociceptin/ORL1 antagonists according to previously published methods (Li et al. J Pharmacol Exp Ther. 319(1):254-9, 2006.). Briefly, male NIH-Swiss mice (Harlan Sprague-Dawley, Indianapolis, Ind.) weighing between 25-30 g are used. Group housed animals are removed from the vivarium to the testing area in their own cages and allowed to adapt to the new environment for at least 1 hour before testing. Alternatively, male 129S6 wild type and nociceptin/ORL1 receptor knockout mice were used to confirm dependence of the response to compound was nociceptin/ORL1 receptor dependent. All compounds are prepared in 20% Captisol, 25 mM phosphate buffer, pH 2.0 on the day of use. Mice are placed in a cylinder (diameter: 10 cm; height: 25 cm) filled with 6 cm of water (22-25° C.) for 6 min. The duration of immobility during the last 4 min. of the 6 min. period of the test was scored. A mouse is recorded as immobile when floating motionless or making only those movements necessary to keep its head above water.

[3] = target: T1, cloned human ORL1/nociceptin receptors (Homo sapiens, UniProt P41146); assay: Functional blockade of agonist-mediated G-protein activation, GTP-γ-[35S] binding; assay type: biochemical; conditions: stimulation with 300 nM nociceptin/OFQ; read-out: Kb for the ORL-1 receptor (antagonist affinity)
T1 construct: expressed in transfected cells
From the text: Agonist-mediated stimulation of G-protein coupled receptors results in the activation of membrane associated Gαβγ-protein heterotrimer complexes, and represents the first step in the transduction of extracellular signals to modification of intracellular pathways. The first step in activation of receptor-mediated activation of Gαβγ-proteins heterotrimer is the exchange of Gα subunit bound guanosine diphoshpate (GDP) for guanosine triphosphate (GTP). The binding of GTP to the Gα subunit causes dissociation of the heterotrimer subunits, Gβ and Gγ, resulting in the modulation of several intracellular signaling cascades. Measurement of receptor-mediated G-protein activation can be measured using the non-hydrolyzable radiolabeled analog of GTP, GTP-γ-[35S]. Utilizing this methodology, antagonist affinity (Kb) is measured in membranes expressing cloned human ORL1/nociceptin receptors using a GTP-γ-[35S] binding assay according to previously described protocols with minor modifications (DeLapp et al., J Pharmacol Exp Ther. 1999 May; 289(2):946-55; Ozaki et al., Eur J Pharmacol. 2000 Aug. 18; 402(1-2):45-53). Assays are conducted in a 200-μl volume with the following buffer composition: 100 mM NaCl, 20 mM HEPES, 5 mM MgCl2, 1 mM EDTA, 0.1% BSA, 3 μM GDP, 0.5 nM [^35S]GTPγS. ORL1 receptor membrane suspension is added at a concentration of 20 μg protein per well and receptor stimulation is achieved using 300 nM nociceptin/OFQ. Wheat germ agglutinin coated SPA beads (Amersham, Arlington Hts., IL) are added at 1 mg per well to detect membrane-bound [^35S]GTPγS. Plates are sealed and incubated for 2 hr. at room temperature. Plates are then placed at 4° C. overnight to allow the SPA beads to settle and then counted in a Wallac Microbeta. Specific [^35S]GTPγS binding is determined as the difference in CPM observed in the absence and presence of 10 μM unlabeled GTPγS. Data are plotted as the percent of specific [^35S]GTPγS bound. Curves are plotted as the percent of specific binding and IC50 values are determined using a sigmoidal dose response curve with variable slope. […]

[4] = system: 129S6 wild type and nociceptin/ORL1 receptor knockout mice; assay: mFST in wild type and ORL-1 knockout mice; assay type: in vivo
From the text: as §1
Yet further, these effects of reduced immobilization times are not observed when ORL-1 knockout mice, a strain of mice engineered to lack the ORL-1 receptor, are used, showing that the effect is indeed mediated by the ORL-1 receptor.

[5] = system: wild type and ORL knockout mice; assay: Blockade of fasting-induced hyperphagia in mice; assay type: in vivo
From the text: Blockade of fasting-induced hyperphagia in rodents is an accepted model for hyperphagic eating disorders. […] Mice are individually housed a minimum of 3 days prior to the onset of testing to eliminate any effects of stress due to the change from group to individual housing. Three mice/genotype are randomly assigned to each treatment group on the test day. Pre-fast body weight measurements are taken, and food is then removed from cages overnight. Mice are fasted for approximately 15 hr. The next morning, the mice are given one of three doses of drug or vehicle via oral gavage 30 min. prior to gaining access to food. Drugs are dissolved in 20% Captisol dissolved in 25 mM phosphate buffer, pH 2.0. Measurements of body weight are taken immediately prior to drug treatment or 24 hr. after access to food is restored. […] Measurements of food intake are recorded 1 hr following access to food, as indicated, by weight of food remaining at 1 hr. It should be noted that food intake measured is during the light phase, a time during which mice are typically at rest and not normally eating. Following initial testing, mice are rested for 1 week with access to unlimited chow.

[6] = system: Male Sprague-Dawley rats; assay: Rat dural plasma protein extravasation (PPE) model, oral dosing; assay type: in vivo; conditions: 1.0 mg/kg po
Method: All test compounds are prepared in a vehicle solution containing 20% Captisol in 25 mM phosphate buffer (pH 2.0). The positive control compound, sumatriptan, is dissolved in saline. Male Sprague-Dawley rats from Harlan Laboratories (250 to 350 g), that have been fasted overnight, are dosed with test compound, sumatriptan or vehicle by oral gavage (2 mL/kg). Fifty min. post-dose the rats are anesthetized with Nembutal (60 mg/kg, ip) and placed in a stereotaxic frame with the incisor bar set at −2.5 mm. Following a mid-line sagittal scalp incision, 2 pairs of bilateral holes were drilled through the skull (3.2 mm posteriorly, 1.8 and 3.8 mm laterally, all coordinates referenced to bregma). Pairs of stainless steel stimulating electrodes (Rhodes Medical Systems Inc), insulated except at the tips, are lowered through the holes in both hemispheres to a depth of 9.2 mm below the dura.
A solution of fluoroscein isothiocyanate (FITC) dye-labeled bovine serum albumin (BSA) (FITC-BSA) (20 mg/kg, iv), is injected into the femoral vein 2 minutes prior to electrical stimulation of the trigeminal ganglion to function as the marker for protein extravasation. Sixty minutes following dosing with test compound or vehicle, the left trigeminal ganglion is electrically stimulated for 5 minutes at a current intensity of 1.0 mA (5 Hz, 5 minutes duration).
Five minutes following stimulation, the rats are killed by exsanguination with 40 mL of saline which also rinses residual FITC/BSA out of the blood vessels. The top of the skull is removed to collect the dural membranes. The membrane samples are removed from both hemispheres, rinsed with water, and spread flat on microscope slides. The slides are dried for 15 minutes on a slide warmer and cover-slipped with a 70% glycerol/water solution.
A fluorescence microscope equipped with a grating monochromator and a spectrophotometer is used to quantify the amount of FITC-BSA dye in each dural sample. The microscope is equipped with a motorized stage interfaced with a personal computer. This facilitates the computer-controlled movement of the stage, with fluorescence measurements at 25 points (500 μm steps) on each dural sample. The extravasation induced by electrical stimulation of the trigeminal ganglion is an ipsilateral effect (that is occurs only on the side of the dura in which the trigeminal ganglion is stimulated). This allows the other (unstimulated) half of the dura to be used as a control. The extravasation ratio (that is the ratio of the amount of extravasation in the dura from the stimulated side compared to the unstimulated side) is calculated. Animals dosed with vehicle alone or an ineffective dose of the test compound have an extravasation ratio of approximately 2, while totally effective treatments result in a ratio of approximately 1.
Results are expressed as mean values with standard errors of the mean (±SEM). All statistical evaluations are conducting utilizing ANOVA followed by comparison to the control group by Dunnett's Method. Statistical significance is assumed when p<0.05. Statistical analyses are performed using JMP statistical analysis software (SAS Research Institute, version 6.0.2).

T1 sequence (P41146 whole entry): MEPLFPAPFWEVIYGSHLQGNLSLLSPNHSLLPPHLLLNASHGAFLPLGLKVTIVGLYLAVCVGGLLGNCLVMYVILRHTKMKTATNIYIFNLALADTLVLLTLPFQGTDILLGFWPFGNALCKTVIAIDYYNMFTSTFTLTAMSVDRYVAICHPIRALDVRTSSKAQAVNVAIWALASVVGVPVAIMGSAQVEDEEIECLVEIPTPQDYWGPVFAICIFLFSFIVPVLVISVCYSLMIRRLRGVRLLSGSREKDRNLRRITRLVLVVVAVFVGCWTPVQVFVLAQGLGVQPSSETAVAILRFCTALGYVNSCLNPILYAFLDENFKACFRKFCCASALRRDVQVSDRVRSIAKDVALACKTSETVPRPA

Structure (SMILES): COCc1cccnc1-n1cc(CN2CCC3(CC2)OCCc2cc(Cl)sc23)c(C)n1.O=C(O)C(O)C(O)C(=O)O [Example 14, 2-Chloro-1′-[[1-[3-(methoxymethyl)-2-pyridyl]-3-methyl-pyrazol-4-yl]methyl]spiro[4,5-dihydrothieno[2,3-c]pyran-7,4′-piperidine] (L)-Tartrate]
- Glutathione conjugate formation [1]: Yes

Structure (SMILES): Cc1nn(-c2c(F)cccc2C(N)=O)cc1CN1CCC2(CC1)OCCc1cc(F)sc12.O=C(O)C(O)C(O)C(=O)O [3-fluoro-2-[4-[(2-fluorospiro[4,5-dihydrothieno[2,3-c]pyran-7,4′-piperidine]-1′-yl)methyl]-3-methyl-pyrazol-1-yl]benzamide (L) Tartrate, reference compound]
- Glutathione conjugate formation [1]: Yes

Structure (SMILES): CNCCC(Oc1ccc(C(F)(F)F)cc1)c1ccccc1 (stereo not drawn) [fluoxetine, reference compound]
- Immobilization Time ([2]; 10 mg/Kg, alone): 168 s

Structure (SMILES): Cc1nn(-c2c(F)cccc2C(N)=O)cc1CN1CCC2(CC1)OCCc1c2sc(F)c1F.O=C(O)C(O)C(O)C(=O)O [3-fluoro-2-[4-[(2,3-difluorospiro[4,5-dihydrothieno[2,3-c]pyran-7,4′-piperidine]-1′-yl)methyl]-3-methyl-pyrazol-1-yl]benzamide (L) Tartrate, reference compound]
- Glutathione conjugate formation [1]: Yes

Structure (SMILES): Cc1nn(-c2ncccc2CO)cc1CN1CCC2(CC1)OCC(F)(F)c1cc(Cl)sc12 [Example 1, [2-[4-[(2-Chloro-4,4-difluoro-spiro[5H-thieno[2,3-c]pyran-7,4′-piperidine]-1′-yl)methyl]-3-methyl-pyrazol-1-yl]-3-pyridyl]methanol (L)-tartrate]
- Kb [3]: 200 pM

Structure (SMILES): COCc1cccnc1-n1cc(CN2CCC3(CC2)OCC(F)(F)c2cc(F)sc23)c(C)n1.O=C(O)C(O)C(O)C(=O)O [Example 10, 2,4,4-Trifluoro-1′-[[1-[3-(methoxymethyl)-2-pyridyl]-3-methyl-pyrazol-4-yl]methyl]spiro[5H-thieno[2,3-c]pyran-7,4′-piperidine] (L)-Tartrate]
- Glutathione conjugate formation [1]: No

Structure (SMILES): CN(C)CCCN1c2ccccc2CCc2ccccc21 [Imiprimine, reference compound]
- Immobilization Time ([2]; 15 mg/kg, positive control): 96* sec
- effect on immobilization time ([4]; ORL-1 knockout mice): reduce immobilization times in both the wild type and knockout mice to an equivalent degree
- effect on immobilization time ([4]; wild type mice): reduce immobilization times in both the wild type and knockout mice to an equivalent degree

Structure (SMILES): Clc1cccc(N2CCNCC2)c1 [mCPP, meta-chlorophenylpiperazine, reference compound]
- effect on fasting-induced hyperphagia ([5]; ORL-1 knockout mouse strain): significantly reduce fasting induced hyperphagia equally in both wild type mice and the ORL-1 knockout mouse strain
- effect on fasting-induced hyperphagia ([5]; wild type mice, oral gavage 30 min. prior to food, food intake at 1 hr): significantly reduce fasting induced hyperphagia equally in both wild type mice and the ORL-1 knockout mouse strain

Structure (SMILES): CNS(=O)(=O)Cc1ccc2[nH]cc(CCN(C)C)c2c1 [Sumatriptan, reference compound]
- Extravasation Ratio (mean) [6]: 1.06*
